Measured values from paper PMC6193555 (Nutrition and cancer, 2017).

How the values were obtained:
c-Met (M1250T) = c-Met (M1250T) (Homo sapiens, UniProt P08581, M1250T); experiment: Z'-LYTE cell-free kinase assay; type: biochemical
c-Met = c-Met (Homo sapiens, UniProt P08581); experiment: Z'-LYTE cell-free kinase assay, positive control; type: biochemical
Chain of c-Met (P08581 25-307): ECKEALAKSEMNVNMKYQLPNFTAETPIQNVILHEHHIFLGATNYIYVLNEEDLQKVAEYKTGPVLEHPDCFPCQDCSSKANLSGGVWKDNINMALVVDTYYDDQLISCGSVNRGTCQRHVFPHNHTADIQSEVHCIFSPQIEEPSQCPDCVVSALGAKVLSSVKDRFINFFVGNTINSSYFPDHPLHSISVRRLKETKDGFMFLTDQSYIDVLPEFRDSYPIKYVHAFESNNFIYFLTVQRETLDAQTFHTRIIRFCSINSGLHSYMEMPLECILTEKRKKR
Chain of c-Met (P08581 308-1390): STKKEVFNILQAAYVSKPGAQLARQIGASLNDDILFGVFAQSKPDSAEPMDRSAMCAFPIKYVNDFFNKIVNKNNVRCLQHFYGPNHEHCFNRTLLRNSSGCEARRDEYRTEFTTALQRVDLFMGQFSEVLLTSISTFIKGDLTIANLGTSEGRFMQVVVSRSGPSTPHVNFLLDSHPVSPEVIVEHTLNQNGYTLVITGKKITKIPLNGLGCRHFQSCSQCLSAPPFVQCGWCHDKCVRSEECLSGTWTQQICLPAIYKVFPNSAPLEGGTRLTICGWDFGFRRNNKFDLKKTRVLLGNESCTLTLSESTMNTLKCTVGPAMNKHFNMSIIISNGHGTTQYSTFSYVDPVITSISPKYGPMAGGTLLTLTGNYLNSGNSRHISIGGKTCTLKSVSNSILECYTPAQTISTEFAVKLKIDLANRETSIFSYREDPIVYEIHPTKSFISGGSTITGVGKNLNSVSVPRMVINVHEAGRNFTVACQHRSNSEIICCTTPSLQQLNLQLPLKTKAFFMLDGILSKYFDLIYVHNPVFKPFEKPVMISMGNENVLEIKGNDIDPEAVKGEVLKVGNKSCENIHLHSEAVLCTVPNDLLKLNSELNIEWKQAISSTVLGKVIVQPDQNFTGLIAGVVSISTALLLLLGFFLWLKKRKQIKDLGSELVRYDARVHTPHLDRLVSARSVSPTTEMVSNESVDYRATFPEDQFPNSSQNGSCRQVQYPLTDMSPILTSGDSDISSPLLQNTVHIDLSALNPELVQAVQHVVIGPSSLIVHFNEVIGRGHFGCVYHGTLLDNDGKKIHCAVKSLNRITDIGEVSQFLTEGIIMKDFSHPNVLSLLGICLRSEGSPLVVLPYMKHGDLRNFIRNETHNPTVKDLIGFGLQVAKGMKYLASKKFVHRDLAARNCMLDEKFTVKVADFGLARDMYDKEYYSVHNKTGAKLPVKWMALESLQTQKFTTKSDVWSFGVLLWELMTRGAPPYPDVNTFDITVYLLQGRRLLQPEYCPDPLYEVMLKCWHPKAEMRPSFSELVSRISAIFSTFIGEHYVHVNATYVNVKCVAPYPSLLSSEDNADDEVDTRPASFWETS

Chain of c-Met (M1250T) (P08581 956-1390 M1250T limits assumed): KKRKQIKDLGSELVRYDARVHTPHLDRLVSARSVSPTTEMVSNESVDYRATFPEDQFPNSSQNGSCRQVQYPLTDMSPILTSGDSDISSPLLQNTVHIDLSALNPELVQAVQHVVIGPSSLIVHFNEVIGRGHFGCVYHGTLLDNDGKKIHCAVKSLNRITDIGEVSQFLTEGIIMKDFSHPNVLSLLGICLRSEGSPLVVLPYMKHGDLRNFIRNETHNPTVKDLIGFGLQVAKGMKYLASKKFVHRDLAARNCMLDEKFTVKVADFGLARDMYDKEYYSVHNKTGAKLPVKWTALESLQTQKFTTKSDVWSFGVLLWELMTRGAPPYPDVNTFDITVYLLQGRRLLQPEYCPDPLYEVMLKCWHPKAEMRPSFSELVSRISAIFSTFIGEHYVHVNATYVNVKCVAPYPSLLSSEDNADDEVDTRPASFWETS

Row | Structure (SMILES) | IC50 (c-Met (M1250T)) | Z'-LYTE cell-free kinase assay, positive control (c-Met)
1 | C[C@@H]1O[C@@H](OC[C@H]2O[C@@H](Oc3c(-c4ccc(O)c(O)c4)oc4cc(O)cc(O)c4c3=O)[C@H](O)[C@@H](O)[C@@H]2O)[C@H](O)[C@H](O)[C@H]1O [compound 6, quercetin 3-O-[α-L-^1C4-rhamnopyranosyl 1'”→6” β-D-^4C1-glucopyranoside]] | 8.5 µM | 
2 | C/C=C(/C=O)[C@@H](CC=O)CC(=O)OCCc1ccc(O)cc1 [(–)-oleocanthal] |  | (–)-oleocanthal was utilized as a positive control in Z'-LYTE cell free assay as a documented c-Met inhibitory phenolic
